{
  "source": "the supplement of paper PMC10307832",
  "assay_in_all_cases": "relative viability (nuclei count vs DMSO), 5 days (fraction); higher = more cells survive",
  "key": {"[1]": {"test_system": "NCI-H2170", "method_in_brief": "(§1)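 Medians of duplicate plates are given as relative viability. That measure is the nuclei count in treated wells divided by the count in vehicle wells. Counts were taken on 4× images of lung cancer cell lines in 1536-well plates, 5 days after pin-tool dosing the day after seeding with one drug alone or a fixed anchor-drug dose plus five library-drug doses (not always all listed) in √10 steps.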"}, "[2]": {"test_system": "EKVX", "method_in_brief": "as §1"}, "[3]": {"test_system": "NCI-H2087", "method_in_brief": "as §1"}, "[4]": {"test_system": "NCI-H1395", "method_in_brief": "as §1"}, "[5]": {"test_system": "NCI-H2009", "method_in_brief": "as §1"}, "[6]": {"test_system": "NCI-H1734", "method_in_brief": "as §1"}, "[7]": {"test_system": "NCI-H2228", "method_in_brief": "as §1"}, "[8]": {"test_system": "HCC-366", "method_in_brief": "as §1"}, "[9]": {"test_system": "NCI-H1355", "method_in_brief": "as §1"}, "[10]": {"test_system": "BEN", "method_in_brief": "as §1"}, "[11]": {"test_system": "HCC-827", "method_in_brief": "as §1"}, "[12]": {"test_system": "SK-LU-1", "conditions": "first compound 0.005 µM", "method_in_brief": "as §1"}},
  "data": [
    {"smiles": "CC1(C)CCC(c2ccc(Cl)cc2)=C(CN2CCN(c3ccc(C(=O)NS(=O)(=O)c4ccc(N[C@H](CCN5CCOCC5)CSc5ccccc5)c(S(=O)(=O)C(F)(F)F)c4)cc3)CC2)C1", "note": "[Navitoclax] + O=C(CCCCCCC(=O)Nc1ccccc1)NO [Vorinostat] (partner 1 µM)", "values": [
      {"measurement": "relative viability", "setting": "[1]; first compound 0.005 µM", "value": 0.818},
      {"measurement": "relative viability", "setting": "[1]; first compound 0.01581 µM", "value": 0.926},
      {"measurement": "relative viability", "setting": "[1]; first compound 0.05 µM", "value": 0.736},
      {"measurement": "relative viability", "setting": "[1]; first compound 0.1581 µM", "value": 0.771},
      {"measurement": "relative viability", "setting": "[1]; first compound 0.5 µM", "value": 0.622},
      {"measurement": "relative viability", "setting": "[2]; first compound 0.005 µM", "value": 0.735},
      {"measurement": "relative viability", "setting": "[2]; first compound 0.01581 µM", "value": 0.911},
      {"measurement": "relative viability", "setting": "[2]; first compound 0.05 µM", "value": 0.668},
      {"measurement": "relative viability", "setting": "[2]; first compound 0.1581 µM", "value": 0.711},
      {"measurement": "relative viability", "setting": "[2]; first compound 0.5 µM", "value": 0.79},
      {"measurement": "relative viability", "setting": "[3]; first compound 0.005 µM", "value": 0.675},
      {"measurement": "relative viability", "setting": "[3]; first compound 0.01581 µM", "value": 0.467},
      {"measurement": "relative viability", "setting": "[3]; first compound 0.1581 µM", "value": 0.853},
      {"measurement": "relative viability", "setting": "[3]; first compound 0.5 µM", "value": 0.848},
      {"measurement": "relative viability", "setting": "[4]; first compound 0.005 µM", "value": 0.653},
      {"measurement": "relative viability", "setting": "[4]; first compound 0.01581 µM", "value": 0.862},
      {"measurement": "relative viability", "setting": "[4]; first compound 0.05 µM", "value": 0.802},
      {"measurement": "relative viability", "setting": "[4]; first compound 0.1581 µM", "value": 0.682},
      {"measurement": "relative viability", "setting": "[4]; first compound 0.5 µM", "value": 0.659},
      {"measurement": "relative viability", "setting": "[5]; first compound 0.005 µM", "value": 0.719},
      {"measurement": "relative viability", "setting": "[5]; first compound 0.01581 µM", "value": 0.88},
      {"measurement": "relative viability", "setting": "[5]; first compound 0.05 µM", "value": 0.759},
      {"measurement": "relative viability", "setting": "[5]; first compound 0.1581 µM", "value": 0.728},
      {"measurement": "relative viability", "setting": "[5]; first compound 0.5 µM", "value": 0.719},
      {"measurement": "relative viability", "setting": "[6]; first compound 0.005 µM", "value": 0.829},
      {"measurement": "relative viability", "setting": "[6]; first compound 0.01581 µM", "value": 0.938},
      {"measurement": "relative viability", "setting": "[6]; first compound 0.1581 µM", "value": 0.755},
      {"measurement": "relative viability", "setting": "[6]; first compound 0.5 µM", "value": 0.703},
      {"measurement": "relative viability", "setting": "[7]; first compound 0.005 µM", "value": 1.13},
      {"measurement": "relative viability", "setting": "[7]; first compound 0.01581 µM", "value": 0.639},
      {"measurement": "relative viability", "setting": "[7]; first compound 0.1581 µM", "value": 0.397},
      {"measurement": "relative viability", "setting": "[7]; first compound 0.5 µM", "value": 0.641},
      {"measurement": "relative viability", "setting": "[8]; first compound 0.005 µM", "value": 0.302},
      {"measurement": "relative viability", "setting": "[8]; first compound 0.01581 µM", "value": 0.356},
      {"measurement": "relative viability", "setting": "[8]; first compound 0.1581 µM", "value": 0.379},
      {"measurement": "relative viability", "setting": "[8]; first compound 0.5 µM", "value": 0.306},
      {"measurement": "relative viability", "setting": "[9]; first compound 0.005 µM", "value": 0.63},
      {"measurement": "relative viability", "setting": "[9]; first compound 0.01581 µM", "value": 0.685},
      {"measurement": "relative viability", "setting": "[9]; first compound 0.05 µM", "value": 0.618},
      {"measurement": "relative viability", "setting": "[9]; first compound 0.1581 µM", "value": 0.637},
      {"measurement": "relative viability", "setting": "[9]; first compound 0.5 µM", "value": 0.665},
      {"measurement": "relative viability", "setting": "[10]; first compound 0.005 µM", "value": 0.617},
      {"measurement": "relative viability", "setting": "[10]; first compound 0.01581 µM", "value": 0.658},
      {"measurement": "relative viability", "setting": "[10]; first compound 0.05 µM", "value": 0.593},
      {"measurement": "relative viability", "setting": "[10]; first compound 0.1581 µM", "value": 0.572},
      {"measurement": "relative viability", "setting": "[10]; first compound 0.5 µM", "value": 0.417},
      {"measurement": "relative viability", "setting": "[11]; first compound 0.005 µM", "value": 0.951},
      {"measurement": "relative viability", "setting": "[11]; first compound 0.01581 µM", "value": 0.902},
      {"measurement": "relative viability", "setting": "[11]; first compound 0.05 µM", "value": 0.619},
      {"measurement": "relative viability", "setting": "[11]; first compound 0.1581 µM", "value": 0.77},
      {"measurement": "relative viability", "setting": "[11]; first compound 0.5 µM", "value": 0.907},
      {"measurement": "relative viability", "setting": "[12]", "value": 0.787}
    ]}
  ]
}
